Measured values from US20250388584A1, “TPK AGONIST AND METHOD FOR TREATING NEURODEGENERATIVE DISEASES USING SAME” (SHANGHAI RAISING PHARMACEUTICAL CO., LTD., priority 2022, published 2025).
Where a name gives a salt, the structure may show the parent alone. Read-outs that look alike come from different tables or passages of the source.

Target: TPK enzyme (Homo sapiens (Human), UniProt Q9H3S4)
Experiment: TPK enzyme activity test
Assay type: biochemical
Details: for Emax: calculated with the effect of DMSO on TPK enzyme activity as 100%; for EC50: promoting effect on TPK enzyme activity

Sequence of TPK enzyme (Q9H3S4 whole entry): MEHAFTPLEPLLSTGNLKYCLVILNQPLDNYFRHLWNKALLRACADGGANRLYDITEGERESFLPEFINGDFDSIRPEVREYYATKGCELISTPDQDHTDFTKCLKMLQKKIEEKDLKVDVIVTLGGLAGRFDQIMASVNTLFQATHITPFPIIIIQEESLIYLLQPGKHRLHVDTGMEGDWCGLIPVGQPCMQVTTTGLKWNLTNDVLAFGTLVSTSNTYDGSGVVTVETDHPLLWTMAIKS

SMILES	Emax	EC50	Emax (read-out: Emax)
Cc1ccc2c(c1)N1CCCC(C(=O)NCCCN3CCN(c4cccc(C(F)(F)F)c4)CC3)C1CO2 (centres unmarked) [Formate salt of 232, 2-methyl-N-(3-(4-(3-trifluoromethylphenyl)piperazin-1-yl)propyl)-6,6a,7,8,9,10-hexahydrobenzo[b]pyrido[1,2-d][1,4]oxazine-7-carboxamide Formate]	136%	1810 nM	–
COc1ccc2c(c1)N1CCN(c3ccccc3OC)CC1C(C(=O)NCCN1CCCCC1)C2 (centres unmarked) [Compound 139]	–	950 nM	198%
O=C(CCN1c2ccccc2Sc2ccccc21)NCCN1CCOCC1 [Compound 200]	–	2.94 nM	168%
O=C(CCn1cnc2c([nH]c3ccc(C(F)(F)F)cc32)c1=O)N1CCN(Cc2cccc(C(F)(F)F)c2)CC1 [Compound 53, 3-(3-oxo-3-(4-(3-(trifluoromethyl)benzyl)piperazin-1-yl)propyl)-8-(trifluoromethyl)-3,5-dihydro-4H-pyrimido[5,4-b]indol-4-one]	–	1580 nM	162%
Cc1ccc2[nH]c3c(=O)n(CC(=O)N4CCN(c5ccc(F)cc5)CC4)cnc3c2c1 [Compound 63]	–	–	148%
O=C(CCn1cnc2c([nH]c3ccc(F)cc32)c1=O)N1CCC(Cc2ccc(F)cc2)CC1 [Compound 154, 8-fluoro-3-(3-(4-(4-fluorobenzyl)piperidin-1-yl)-3-oxopropyl)-3,5-dihydro-4H-pyrimido[5,4-b]indol-4-one]	–	2600 nM	144%

More lines, now with the values ahead:

Emax	EC50	Emax (read-out: Emax)	SMILES
–	–	145%	Cc1cccc(N2CCN(C(=O)CCn3cnc4c([nH]c5ccc(C)cc54)c3=O)CC2)c1 [Compound 38]
–	1150 nM	157%	Cc1ccc2[nH]c3c(=O)n(CCC(=O)N4CCN(c5ccc(C(F)(F)F)cc5)CC4)cnc3c2c1 [Compound 10, 8-methyl-3-(3-oxo-3-(4-(4-(trifluoromethyl)phenyl)piperazin-1-yl)propyl)-3,5-dihydro-4H-pyrimido[5,4-b]indol-4-one]
–	1030 nM	208%	O=C(CCn1cnc2c([nH]c3ccc(C(F)(F)F)cc32)c1=O)N1CCN(c2cccc(C(F)(F)F)c2)CC1 [Compound 6, 3-(3-oxo-3-(4-(3-(trifluoromethyl)phenyl)piperazin-1-yl)propyl)-8-(trifluoromethyl)-3,5-dihydro-4H-pyrimido[5,4-b]indol-4-one]
130.73%	3170 nM	–	O=C(CCn1cnc2c([nH]c3ccc(F)cc32)c1=O)N1CCN(c2cccc(C(F)(F)F)c2)CC1 [Compound 153, 8-fluoro-3-(3-oxo-3-(4-(3-(trifluoromethyl)phenyl)piperazin-1-yl)propyl)-3,5-dihydro-4H-pyrimido[5,4-b]indol-4-one]
–	3560 nM	160%	Cc1ccc2[nH]c3c(=O)n(CCC(=O)N(C)CCN(C)c4cccc(C(F)(F)F)c4)cnc3c2c1 [Compound 92, N-methyl-N-(2-(methyl(3-(trifluoromethyl)phenyl)amino)ethyl)-3-(8-methyl-4-oxo-4,5-dihydro-3H-pyrimido[5,4-b]indol-3-yl)propanamide]
–	2490 nM	157%	Cc1ccc2[nH]c3c(=O)n(CCC(=O)N4CCC(O)(c5cccc(C(F)(F)F)c5)CC4)cnc3c2c1 [Compound 165, 3-(3-(4-hydroxy-4-(3-(trifluoromethyl)phenyl)piperidin-1-yl)-3-oxopropyl)-8-methyl-3,5-dihydro-4H-pyrimido[5,4-b]indol-4-one]
–	–	205%	O=C(CCn1cnc2c([nH]c3ccc(Br)cc32)c1=O)N1CCN(c2cccc(C(F)(F)F)c2)CC1 [Compound 12, 8-bromo-3-(3-oxo-3-(4-(3-(trifluoromethyl)phenyl)piperazin-1-yl)propyl)-3,5-dihydro-4H-pyrimido[5,4-b]indol-4-one]
